Article PMC12597549 (Drug Metabolism and Disposition, 2025)
Changes are numbered by the printed parent chain. Entries after “also recorded” stand apart in the source; their conditions may differ. Where two headings read alike, the source gives them in different places.

Legend:
[1] = biological target: T1, UGT2B7^268His (Homo sapiens, UniProt P16662, Y268H); experiment: Inhibition of hydromorphone glucuronidation (HM3G formation) by cannabinoids in rUGT2B7^268His microsomes; format: biochemical; details: for inhibition of HM3G formation: 100 μM cannabinoid, 400 μM hydromorphone, 2% BSA, vs vehicle control; for IC50: IC50 corrected for nonspecific binding (fu,inc from refs 32,33; 11-OH-THC fu,inc as surrogate for 7-OH-CBD and 7-COOH-CBD), mean ± SD
T1 construct: expressed in transfected cells; microsomal membrane fraction
T1 sequence (P16662 24-529 Y268H): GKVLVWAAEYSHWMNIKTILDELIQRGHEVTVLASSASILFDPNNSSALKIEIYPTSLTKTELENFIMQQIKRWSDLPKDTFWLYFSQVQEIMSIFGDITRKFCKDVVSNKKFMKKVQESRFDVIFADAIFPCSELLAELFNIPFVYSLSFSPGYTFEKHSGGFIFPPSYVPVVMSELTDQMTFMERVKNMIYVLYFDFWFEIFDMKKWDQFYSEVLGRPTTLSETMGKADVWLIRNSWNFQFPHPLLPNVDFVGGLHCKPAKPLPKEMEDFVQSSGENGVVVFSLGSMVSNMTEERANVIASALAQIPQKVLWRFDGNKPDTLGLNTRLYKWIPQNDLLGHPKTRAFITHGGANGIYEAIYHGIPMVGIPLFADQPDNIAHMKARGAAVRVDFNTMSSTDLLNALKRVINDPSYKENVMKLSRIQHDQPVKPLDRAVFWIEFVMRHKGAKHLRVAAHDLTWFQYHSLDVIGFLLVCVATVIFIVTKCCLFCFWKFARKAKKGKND

[2] = biological target: T2, UGT2B7 in pooled human liver microsomes (HLM) (Homo sapiens, UniProt P16662); experiment: Inhibition of UGT2B7-mediated hydromorphone glucuronidation by cannabinoids in pooled HLM (screening, IC50, Ki, inhibition type); format: biochemical; details: for IC50: IC50 corrected for nonspecific binding (fu,inc from refs 32,33; 11-OH-THC fu,inc as surrogate for 7-OH-CBD and 7-COOH-CBD), mean ± SD
T2 sequence (P16662 24-529): T1 sequence (P16662 24-529 Y268H) with H245Y

[3] = biological target: T3, UGT2B7^268Tyr (Homo sapiens, UniProt P16662); details: rUGT2B7^268Tyr microsomes; for inhibition of HM3G formation: 100 μM cannabinoid, 400 μM hydromorphone, 2% BSA, vs vehicle control
T3 sequence (P16662 24-529): T1 sequence (P16662 24-529 Y268H) with H245Y

[4] = tested on: UGT2B7-mediated hydromorphone metabolism; experiment: Static mechanistic IVIVE modeling of cannabinoid-hydromorphone drug interaction (AUCR); design: species or system human; details: after inhalation and oral consumption of THC and CBD
[5] = Estimated maximum unbound hepatic inlet plasma concentrations of cannabinoids after oral or inhaled THC or CBD; design: species or system human; details: doses and Cmax from Bansal et al., 2022, read-out: Cmax,hepatic inlet,u
Text: [I]h is the inhibitor concentration in the liver and is defined as follows:(7) [I]h=fu,p×(Cmax+Fa×Fg×Ka×Dose/Qh×Rb) where fu,p is the unbound fraction of inhibitor in plasma, and Cmax is the maximal total (free and bound) inhibitor concentration in the plasma.

[6] = tested on: UGT2B7^268Tyr; details: from IC50,u values in rUGT2B7^268Tyr vs rUGT2B7^268His microsomes

Row | Molecule | inhibition of HM3G formation [1] [%] | IC50 [1] [µM] | inhibition of HM3G formation (in words) ([2]; 100 μM cannabinoid, pooled HLM) | IC50 ([2]; HLM) [µM] | inhibition of HM3G formation [3] [%] | inhibitory effect on hydromorphone metabolism for the UGT2B7∗2 variant (in words) [3] | inhibition of HM3G formation ([2]; 100 μM cannabinoid, 400 μM hydromorphone, 2% BSA, pooled HLM, vs vehicle control) [%] | α value (mixed inhibition model) ([2]; HLM, GraphPad mixed inhibition model) | Ki ([2]; HLM, Ki corrected for nonspecific binding (fu,inc from refs 32,33; 11-OH-THC fu,inc as surrogate for 7-OH-CBD), competitive model, mixed model for 11-OH-THC, read-out: Ki,u) [µM] | Inhibition Type ([2]; type of reversible inhibition of UGT2B7-mediated hydromorphone metabolism in HLM, Lineweaver-Burk replots) | increase in hydromorphone exposure (static modeling) [4] [fold] | Cmax ([5]; THC 20 mg oral) [nM] | Cmax ([5]; THC 25 mg inhalation) [nM] | Cmax ([5]; THC 70 mg inhalation) [nM] | Cmax ([5]; THC 100 mg inhalation) [nM] | Cmax ([5]; THC 130 mg oral) [nM] | Cmax ([5]; THC 160 mg oral) [nM] | IC50 ([3]; read-out: IC50,u, IC50 corrected for nonspecific binding (fu,inc from refs 32,33; 11-OH-THC fu,inc as surrogate for 7-OH-CBD), mean ± SD) [µM] | inhibitory effect against UGT2B7∗2, fold lower than with UGT2B7∗1 [6]
1 | C=C(C)[C@@H]1CCC(C(=O)O)=C[C@H]1c1c(O)cc(CCCCC)cc1O [7-COOH-CBD] | 60 | 5.54 ± 3.67 | only minimal or moderate inhibition | > 10 | 41 | little to no inhibitory effect |  |  |  |  |  |  |  |  |  |  |  |  | 
2 | 11-hydroxy (OH)-Δ^9-THC [11-OH-THC] | 98 | 0.36 ± 0.03 |  | 1.08 ± 0.14 | 87 |  | 96 | > 1 | 1.01 ± 0.18 | mixed type inhibition | > 1.25 | 20 | 10 | 30 | 50 | 100 | 120 | 0.84 ± 0.19 | 2- to 3 fold
3 | CCCCCc1cc(O)c2c(c1)OC(C)(C)[C@@H]1CCC(C(=O)O)=C[C@@H]21 [11-COOH-THC, 11-nor-9-carboxy (COOH)-Δ^9-THC] | 49 |  | only minimal or moderate inhibition; also recorded: did not show appreciable inhibition |  | 27 |  |  |  |  |  |  | 190 | 70 | 180 | 260 | 1220 | 1500 |  | 
